Source: US6355690B1, “Remedy for CAG repeat expansion diseases” (Niigata University, priority 1998, dated 2002)

What was measured:
Format in all cases: cell-based
[1] = system: COS7 cells transfected with pEGFP-Q82-19; test: Aggregate body formation in COS7 cells expressing truncated DRPLA protein with expanded polyglutamine stretch (GFP fusion)
Protocol: (§1) The COS7 cells were transfected with plasmid thus constructed. COS7 cells were seeded in Dulbecco's modified Eagle's medium (DMEM) containing 10% fetal calf serum the day before transfection at 3×10^4 per well of an 8-well chamber slide (Nunc Inc., Naperville, Ill.). The COS7 cells were transfected with 0.5 μg of plasmid DNA using the SuperFect transfection reagent (Qiagen, Hilden, Germany) according to the manufacturer's instructions.
(§2) To investigate whether the transglutaminase reaction is involved in the formation of aggregate bodies and the induction of apoptotic cell death, the inventors cultured COS7 cells in the presence of transglutaminase inhibitors (cystamine^28, monodansyl cadaverine (MDC)^29, and putrescine^30), after transfection. For tilis purpose, truncated DRPLA proteins were expressed as fusion proteins with green fluorescence protein (GFP), which allowed the highly sensitive observation of viable cells. The inserts of pEF-BOS-FQ82-19 and pEF-BOS-FQ19-19 were transferred into pEGFP containing the coding region for GFP. The resultant plasmid DNAs (pEGFP-FQ82-19 and pEGFP-FQ19-19) were transfected into COS7 cells. The plasmid DNA was constructed as below. The segment coding for 3 histidines, the polyglutamine stretch and 19 amino acids downstream of the polyglutamine stretch of DRPLA cDNA (pDRPLAE or pDRPLAN) was amplified by PCR using a primer (5′-GGGAATTCGGATGCACCAT-[…]-3′) containing an EcoRI linker sequence and a primer (5′-[…]-3′). PCR products were digested with EcoRI and BamHI, and subcloned into the pEGFP-N1 expression vector (Clontech, Palo Alto, Calif.). The nucleotide sequences of all the constructs were confirmed using automated DNA sequencers (PE Applied Biosystems, Foster City, Calif.).
The effects of other transglutaminase inhibitor (MDC) on the aggregate formation and apoptotic cell death were also investigated. The TUNEL assay was performed using an In Situ Cell Death Detection Kit (Boehringer Mannheim, Mannheim, Germany) according to the manufacturer's instructions. FITC-conjugated dUTP was used for the terminal deoxynucleotidyl transferase reaction. An assay for nuclear fragmentation was performed by staining cells with […] Hoechst 33342. Quantitation was performed by analyzing 100 cells expressing the FLAG epitope. Statistical analyses were performed using Student's t test.

[2] = system: COS7 cells transfected with pEGFP-Q82-19; test: Nuclear fragmentation (apoptotic cell death), Hoechst 33342 staining
Protocol: as §1, §2
The effects of other transglutaminase inhibitor (MDC) on the aggregate formation and apoptotic cell death were also investigated. The TUNEL assay was performed using an In Situ Cell Death Detection Kit (Boehringer Mannheim, Mannheim, Germany) according to the manufacturer's instructions. […] Quantitation was performed by analyzing 100 cells expressing the FLAG epitope. […]

[3] = system: COS7 cells transfected with pEGFP-Q19-19; test: Expression pattern of GFP fusion protein with polyglutamine stretch of normal length; details: 1 mM cystamine
Protocol: as §1
To investigate whether the transglutaminase reaction is involved in the formation of aggregate bodies and the induction of apoptotic cell death, the inventors cultured COS7 cells in the presence of transglutaminase inhibitors (cystamine^28, monodansyl cadaverine (MDC)^29, and putrescine^30), after transfection. For tilis purpose, truncated DRPLA proteins were expressed as fusion proteins with green fluorescence protein (GFP), which allowed the highly sensitive observation of viable cells. The inserts of pEF-BOS-FQ82-19 and pEF-BOS-FQ19-19 were transferred into pEGFP containing the coding region for GFP. The resultant plasmid DNAs (pEGFP-FQ82-19 and pEGFP-FQ19-19) were transfected into COS7 cells. The plasmid DNA was constructed as below. […]

[4] = even at 100 µM of cystamine, various concentrations

Row | SMILES | sizes of the aggregate bodies (in words) ([1]; presence of MDC compared to absence of MDC) | frequencies of the cells with aggregate formation (in words) ([1]; various concentrations of MDC) | suppression of nuclear fragmentation (in words) ([2]; various concentrations of MDC) | frequency of cells retaining a diffuse cytoplasmic expression pattern without aggregate formation ([1]; 1 mM cystamine, 60 hours after transfection, 32% in absence of cystamine, P<0.01) [%] | cells with formation of aggregate bodies ([1]; 1 mM cystamine, cultured for 60 hours, 42% without cystamine, P<0.01) [%] | suppression of aggregate bodies (in words) [1, 4] | nuclear fragmentation ([2]; 1 mM cystamine, 60 hours, 38% without cystamine, P<0.05) [%] | suppression of nuclear fragmentation (in words) [2, 4] | expression patterns of the fusion protein (in words) [3]
1 | CN(C)c1cccc2c(S(=O)(=O)NCCCCCN)cccc12 [MDC, monodansyl cadaverine] | smaller | no significant changes | Strong suppression | – | – | – | – | – | –
2 | NCCSSCCN [cystamine] | – | – | – | 56 | 33 | suppression effects appeared in a dose-dependent manner | 24 | suppression effects appeared in a dose-dependent manner | did not change
